Five compounds from patent publication US5739300A, “Antiadhesive piperidine-and pyrrolidinecarboxylic acids” (Hoechst Aktiengesellschaft, priority 1995, dated 1998) can be followed below.

The target in test [1] is T1, E-selectin (Homo sapiens, UniProt P16581).
T1 construct: genetically engineered soluble fusion proteins from the extracytoplasmic domain of E- or P-selectin in each case; made in house; host or cells: COS-7 cells (ATCC), transiently transfected; culture supernatant captured on anti-human IgG
T1 sequence (P16581 with tags, fused parts or gaps): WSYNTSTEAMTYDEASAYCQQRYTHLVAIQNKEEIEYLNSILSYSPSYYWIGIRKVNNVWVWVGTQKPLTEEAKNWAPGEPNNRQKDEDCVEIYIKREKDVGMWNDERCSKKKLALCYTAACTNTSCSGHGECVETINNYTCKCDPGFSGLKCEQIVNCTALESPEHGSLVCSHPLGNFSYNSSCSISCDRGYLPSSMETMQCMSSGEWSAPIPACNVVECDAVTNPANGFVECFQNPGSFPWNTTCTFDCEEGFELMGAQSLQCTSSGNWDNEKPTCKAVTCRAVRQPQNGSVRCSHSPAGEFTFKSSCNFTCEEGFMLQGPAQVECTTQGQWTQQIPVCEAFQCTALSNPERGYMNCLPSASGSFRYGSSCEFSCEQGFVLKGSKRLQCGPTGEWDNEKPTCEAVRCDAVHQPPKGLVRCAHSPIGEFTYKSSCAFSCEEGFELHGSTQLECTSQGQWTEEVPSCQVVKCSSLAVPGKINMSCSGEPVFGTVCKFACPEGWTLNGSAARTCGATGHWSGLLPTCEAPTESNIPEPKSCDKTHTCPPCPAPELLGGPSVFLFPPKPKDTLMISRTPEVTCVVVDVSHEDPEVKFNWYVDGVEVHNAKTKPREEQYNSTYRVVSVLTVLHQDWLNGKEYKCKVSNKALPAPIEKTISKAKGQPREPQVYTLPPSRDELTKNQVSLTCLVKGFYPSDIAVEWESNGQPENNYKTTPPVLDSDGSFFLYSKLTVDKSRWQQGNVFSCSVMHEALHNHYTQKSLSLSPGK
Kind of test: HL60 cell adhesion assay on recombinant, soluble E-selectin-IgG1 fusion protein. It counts as cell-based. The note with it: read-out: IC 50 values for E-selectin. The text has this: (§1) Primary assays for the investigation of the action of the compounds of the present invention for cell adhesion to recombinant, soluble selectin fusion proteins.
(§2) In order to test the activity of the compounds according to the invention on the interaction between the E- and P-selectins (old nomenclature ELAM-1 and GMP-140) with their ligands, an assay is used which is only specific for one of these interactions in each case. The ligands are supplied in their natural form as surface structures on promyelocytic HL60 cells. As HL60 cells have ligands and adhesion molecules of very different specificity, the desired specificity of the assay can only be produced by means of the binding component. The binding components used were genetically engineered soluble fusion proteins from the extracytoplasmic domain of E- or P-selectin in each case and the constant region of a human immunoglobulin of the subclass IgG1.
Preparation of L-selectin-IgG1
To prepare soluble L-selectin-IgG1 fusion protein, the genetic construct "ELAM-Rg" published by Walz et al., 1990 was used.
For expression, the plasmid DNA was transfected in COS-7 cells (ATCC) by means of DEAE-dextran (Molecular biological methods: see Ausubel, F. M., Brent, R., Kingston, R. E., Moore, D. D., Seidman, J. G., Struhl, K. and Smith, J. A. 1990. Current Protocols in Molecular Biology, John Wiley, New York). Seven days after transfection, the culture supernatant is recovered, freed from cells and cell fragments by centrifugation and transferred to 25 mM HEPES pH 7.0, 0.3 mM PMSF, 0.02% sodium azide and kept at +4° C. (Walz, G., Aruffo, A., Kolanus, W., Bevilacqua, M. and Seed, B. 1990. Recognition by ELAM-1 of the sialyl-Lex determinant on myeloid and tumor cells. Science 250, 1132-1135.)
(§3) Carrying out the HL60 cell adhesion assays on recombinant, soluble adhesion molecules
(§4) 1. 96-well microtiter test plates (Nunc Maxisorb) are incubated at room temperature for 2 hours with 100 μl of a goat anti-human IgG antibody (Sigma) diluted (1+100) in 50 mM tris pH 9.5. After removing the antibody solution, washing is carried out once with PBS.
(§5) 2. 150 μl of the blocking buffer are left in the wells for 1 hour at room temperature. The composition of the blocking buffer is: 0.1% gelatin, 1% BSA, 5% calf serum, 0.2 mM PMSF, 0.02% sodium azide. After removing the blocking buffer, washing is carried out once with PBS.
(§6) 3. 100 μl each of cell culture supernatant of correspondingly transfected and expressing COS cells are pipetted into the wells, Incubation is carried out for 2 hours at room temperature. After removing the cell culture supernatant, washing is carried out once with PBS.
4. 20 μl of binding buffer are added to the wells. […]

For test [2], the system named is P-selectin. Kind of test: HL60 cell adhesion assay on recombinant, soluble P-selectin-IgG1 fusion protein. It counts as cell-based. The note with it: read-out: IC 50 values for P-selectin.
Text: as §1, §2
Preparation of P-selectin-IgG1
To prepare the soluble P-selectin-lgG1 fusion protein, the genetic construct "CD62Rg" published by Aruffo et al., 1991 is used. The further procedure corresponds to the preparation of L-selectin-IgG1 presented under A1.
Aruffo, A., Kolanus, W., Walz, G., Fredman, P. and Seed, B. 1991. CD62/-P-Selectin recognition of myeloid and tumor cell sulfatides. Cell 67, 35-44.
as §3, §4, §5, §6
4. 20 μl of binding buffer are added to the wells. The binding buffer has the composition: 50 mM HEPES, pH 7.5; 100 mM NaCl; 1 mg/ml BSA; 2 mM MgCl2; 1 mM CaCl2; 3 mM MnCl2; 0.02% sodium azide; 0.2 mM PMSF. To do this, 5 μl of the test substance are pipetted, mixed by swirling the plate and incubated at room temperature for 10 min.
5. 50 ml of a HL60 cell culture having 200,000 cells/ml are centrifuged at 350 g for 4 min. The pellet is resuspended in 10 ml of RPMI 1640 and the cells are centrifuged again. […]

Test [3] has as its system adhesion of leukocytes to the endothelium. Kind of test: Leukocyte adhesion in vivo, intravital microscopy in the rat (mesenterium, LPS-induced). The note with it: SPRD (m) rat, LPS 15 mg/kg, vs untreated control. An excerpt: Leukocyte adhesion--Testing of the activity of the compounds according to the invention in vivo (intravital microscopy in the rat):
The induced adhesion of leukocytes is quantified in the mesenterium of the rat using an intravital microscopic investigation technique (Atherton A. and Born G. V. R., Quantitative investigations of the adhesiveness of circulating polymorphonuclear leukocytes to blood vessel walls. J. Physiol. 222, 447-474, 1972; Seiffge, D. Methoden zur Untersuchung der Rezeptor-vermittelten Interaktion zwischen Leukozyten und Endothelzellen im Entzundungsgeschehen [Methods for investigation of the receptor-mediated interaction between leukocytes and endothelial cells in inflammatory phenomena], in: Ersatz- und Erganzungsmethoden zu Tierversuchen in der biomedizinischen Forschung [Substitution and replacement methods for animal experiments in biomedical research], Schoffl, H. et al., (ed.) Springer, 1995 (in print)). Lasting anesthesia is initiated under inhalation ether anesthesia by intramuscular injection of urethane ([…] of body weight). After exposing vessels (femoral vein for the injection of substances and carotid artery for blood pressure measurement), catheters are tied into them. After this, the corresponding transparent tissue (mesenterium) is exposed by the standard methods known in the literature and arranged on the microscope stage and coated with warm liquid paraffin at 37° C. (Menger, M. D. and Lehr, H, A., Scope and perspectives of intravital microscopy-bridge over from in vitro to in vivo, Immunology Today 14, 519-522, 1993). […] The increased adhesion of leukocytes to the endothelium caused by this means is quantified by direct vital microscopy or with the aid of fluorescent dyes. All measuring operations are recorded by video camera and stored on a video recorder. Over a period of 60 minutes, the number of rolling leukocytes (i.e. all visibly rolling leukocytes which are slower than the flowing erythrocytes) and the number of leukocytes adhering to the endothelium (residence period longer than 5 seconds) is determined every 10 minutes. […]

In test [4] the test system is open rabbit heart perfused with leukocytes. Kind of test: Reperfusion model: adhesion of neutrophils in ischemia/reperfusion on the open rabbit heart (Langendorff). On the procedure: Reperfusion model for investigation of the effects of the adhesion of neutrophils in the course of ischemia/reperfusion on the open rabbit heart
The hearts are perfused at constant pressure according to the Langendorff technique with nutrient solution and also with/without leukocytes or active compound. Ischemia is then produced by tying off the left coronary artery (30 min). After reperfusion (30 min), the leukocyte accumulation is histologically assessed. In the course of the experiment, potentials and arrhythmias are additionally measured on 256 electrodes (total time of experiment about 90 min).

Some results are limits rather than exact numbers.

Take `C[C@@H]1O[C@@H](O[C@@H]2CCC[C@H]2OC(=O)N2CCC(C(=O)O)CC2)[C@@H](O)[C@H](O)[C@@H]1O` [Compound 1e, N-Carbonyl-4-carboxypiperidyl-(1→2)-[(α-L-fucopyranosyl)-(1→1)]-(1R, 2R)-trans-1,2-cyclopentanediol]: the IC50 in test [1] came out at 3700 µM; in test [2] it was 2850 µM.
For `C[C@@H]1O[C@@H](O[C@@H]2CCCC[C@H]2OC(=O)N2CCC(C(=O)O)CC2)[C@@H](O)[C@H](O)[C@@H]1O` [Compound 3a, N-Carbonyl-4-carboxypiperidyl-(1→2)-[(α-L-fucopyranosyl)-(1→1)]-(1R, 2R)-trans-1,2-cyclohexanediol], the IC50 in test [1] and in test [2] was more than 2000 µM each time. Besides, the “inhibition (of leukocyte adhesion)” value turned out to be 64% in test [3] (1 mg/kg i.v.), 69% in test [3] (5 mg/kg i.v.) and 81% in test [3] (10 mg/kg i.v.). Besides, the reduction of arrhythmias entry in test [4] (in the range from about 1 μM) is recorded as “considerable reduction of arrhythmias”.
On to `C[C@@H]1O[C@@H](O[C@@H]2CCCC[C@H]2OC(=O)N2CCC(C(=O)O)(C(=O)O)CC2)[C@@H](O)[C@H](O)[C@@H]1O` [Compound 3e, N-Carbonyl-4,4-dicarboxypiperidyl-(1→2)-[(α-L-fucopyranosyl)-(1→1)]-(1R, 2R)-trans-1,2-cyclohexanediol], for which the IC50 is 1600 µM in test [1] and 7500 µM in test [2].
The corresponding values for `C[C@@H]1O[C@@H](O[C@@H]2CCCC[C@H]2OC(=O)N2CCCC(CC(C(=O)O)C(=O)O)C2)[C@@H](O)[C@H](O)[C@@H]1O` (stereo partly drawn) [Compound 4b, [N-Carbonyl-(1,1-dicarboxyl-ethyl)-(2→3)-piperidyl]-(1→2)-[(α-L-fuco-pyranosyl)-(1→1)]-(1R, 2R)-trans-1,2-cyclohexanediol] are more than 2000 µM and more than 2000 µM.
For the compound “chondroitin sulfate [reference compound]”, the “leukocyte accumulation and arrhythmias” value in test [4] (hearts perfused with leukocytes and active compound, vs untreated hearts) was “reduced leukocyte accumulation and arrhythmias”.
